Read-outs that look alike come from different tables or passages of the source.

21 compounds from EP0548798A1, “Antiviral agent” (SANWA KAGAKU KENKYUSHO CO., LTD., priority 1991, dated 1993) can be followed below.

Data set [1] concerns herpes simplex virus type 1 (Miyama strain). As to the kind of experiment: Antiviral activity against HSV-1 in vitro, inhibition of virus-induced CPE in GMK cells (Test Example 1). The class given is cell-based, HSV-1 (Miyama strain). On the procedure: (§1) Confluent GMK cells (derived from green monkey kidney) in 96-well plates were infected with HSV-1 (Miyama strain) in the presence of various concentrations of test compounds. […] The virus titer (TCID₅₀) was determined from CPE of virus infected culture. Antivirus effects of test compounds were calculated from TCID₅₀ values of test compound treated and control cultures and represented by ΔTCID₅₀(log₁₀). Test compounds were dissolved in MEM medium, ethanol or DMSO to 10 mg/ml, and diluted with MEM medium supplemented with 1% fetal bovineserum.

The test system of data set [2] is GMK cells. As to the kind of experiment: Cytotoxicity observed microscopically in GMK cells (Test Example 1). The class given is cell-based, green monkey. As for the experimental part: as §1
In Table 1, parentheses indicate the cytotoxicity of these compounds. (-) and (±) indicate no cytotoxicity and slight cytotoxicity, respectively.

Data set [3] relates to herpes simplex virus type 1 (Miyama strain). The data set can be described thus: Antiviral activity against HSV-1 in vitro, inhibition of virus-induced CPE in GMK cells (Test Example 2). The class given is cell-based, HSV-1 (Miyama strain). To be noted: 0.5% fetal bovine serum. As for the experimental part: (§2) Confluent GMK cells (derived from green monkey kidney) in 96-well plates were infected with HSV-1 (Miyama strain) in the presence of various concentrations of test compounds. After incubation, virus-induced cytopathic effect (CPE), inhibitory effect of CPE by the test compound and cytotoxicity were microscopically observed. The virus titer (TCID₅₀) was determined from CPE of virus infected culture. Ancivirus effects of test compounds were calculated from TCID₅₀ values of test compound treated and control cultures and represented by ΔTCID₅₀(log₁₀). Test compounds were dissolved in MEM medium, ethanol or DMSO to 10 mg/ml, and diluted with MEM medium supplemented with 0.5% fetal bovine serum.

Data set [4] concerns GMK cells. As to the kind of experiment: Cytotoxicity observed microscopically in GMK cells (Test Example 2). The class given is cell-based, green monkey. On the set-up: key: -: no cytotoxicity; ±: slight cytotoxicity; +: cytotoxicity with observable antiviral effect. As to conditions: in parentheses. As for the experimental part: as §2
In Table 4, parentheses indicate the cytotoxicity of these compounds. (-), (±) and (+) indicate no cytotoxicity, slight cytotoxicity and cytotoxicity with observable antiviral effect, respectively.

A further data set has as its system HSV-1 (Miyama strain). As to the kind of experiment: Anti HSV-1 activity in vivo, intraperitoneally infected mice. On the set-up: species or system Male BALB/c mice. To be noted: 322 PFU (10LD₅₀) HSV-1. On the procedure: Male BALB/c mice (5 weeks of age) were intraperitoneally infected with 322 PFU (plaque forming unit, 10LD₅₀) of HSV-1 (Miyama strain). Twenty one days later, survival ratio and mean survival days were evaluated. Test compounds were dispersed in 5% arabic gum/physiological saline, and intraperitoneally administered at 10 mg and 20 mg/kg. Treatment began just after virus inoculation and continued for 5 days.

[5] abbreviates: 10 µg/ml, GMK cells, 1% fetal bovine serum.
[6] abbreviates: 10 µg/ml, GMK cells, in parentheses.
Setting [7] is: Human alphaherpesvirus 1, 10 µg/ml, GMK cells, 1% fetal bovine serum, read-out: Antiviral Activity (ΔTCID₅₀(log₁₀)).
The mark [8] stands for this setting: 10 mg/kg intraperitoneally for 5 days.
[9] abbreviates: 20 mg/kg intraperitoneally for 5 days.

For the compound `CC1(C)[C@@H](O)CC[C@]2(C)[C@H]3CC=C4[C@@H]5C[C@@](C)(C(=O)N6CCN(c7ccccc7Cl)CC6)CC[C@]5(C)CC[C@@]4(C)[C@]3(C)CC[C@@H]12` [Compound of Example 15, 1-(3β-Hydroxy-18β-olean-12-en-30-oyl)-4-(2-chlorophenyl)piperazine], the “Antiviral Activity (ΔTCID₅₀(log₁₀))” value in data set [1] (setting [5]) is recorded as greater than 2.00 log₁₀.

Turning to `CC(=O)N1CCN(c2ccccc2Cl)CC1` [Compound of Example 13, 1-Acetyl-4-(2-chlorophenyl)piperazine], the cytotoxicity result in the data set on GMK cells [2] (setting [6]) was “-”. Besides, the log reduction at 10 µg/mL in data set [1] (setting [7]) was determined as 0.

As to `O=C(CC12CCCN1CCC2)N1CCN(c2ccccc2Cl)CC1` [Compound of Example 4, 1-(1-Azabicyclo[3.3.0]octan-5-yl)acetyl-4-(2-chlorophenyl)piperazine], the “Antiviral Activity (ΔTCID₅₀(log₁₀))” value in data set [1] (setting [5]) is 0.66 log₁₀.

Regarding `CCN1CCN(c2ccccc2Cl)CC1` [Compound of Example 12, 1-(2-Chlorophenyl)-4-ethylpiperazine], the cytotoxicity result in the data set on GMK cells [2] (setting [6]) is “-”. In data set [1] (Human alphaherpesvirus 1, GMK, read-out: Antiviral Activity (ΔTCID₅₀(log₁₀))), the log reduction at 10 µg/mL was determined as 0.33.

For the compound `O=c1[nH]c(N2CCN(c3ccccc3C(F)(F)F)CC2)nc2nc[nH]c12` [Compound of Example 20, 2-[4-(2-Trifluoromethylphenyl)-1-piperazinyl]hypoxanthine], the figures for the “Antiviral Activity (ΔTCID₅₀(log₁₀))” value in data set [3] (5 µg/ml) and in data set [3] (10 µg/ml) were 1.66 log₁₀ and greater than 2.83 log₁₀, respectively. Besides, the cytotoxicity result in the data set with GMK cells [4] (5 µg/ml) is recorded as “-”; with GMK cells [4] (10 µg/ml) it was “±”.

`CCCCCCCCCCCCCCCCCC(=O)N1CCN(c2ccccc2Cl)CC1` [Compound of Example 7, 1-(2-Chlorophenyl)-4-octadecanoylpiperazine]: the cytotoxicity result in the data set with GMK cells [2] (setting [6]) is recorded as “-”. Also, the log reduction at 10 µg/mL in data set [1] (setting [7]) was 0.17.

`CC1(C)[C@@H](O)CC[C@]2(C)[C@H]3CC=C4[C@@H]5C[C@@](C)(C(=O)N6CCN(c7ccccc7C(F)(F)F)CC6)CC[C@]5(C)CC[C@@]4(C)[C@]3(C)CC[C@@H]12` [Compound of Example 18, 4-(2-Trifluoromethylphenyl)-1-(3β-hydroxy-18β-olean-12-en-30-oyl)piperazine]: the “Antiviral Activity (ΔTCID₅₀(log₁₀))” value in data set [3] (10 µg/ml) is given as 1.67 log₁₀. Also, the cytotoxicity result in the data set with GMK cells [4] (10 µg/ml) is listed as “-”.

As to `O=C(c1ccccc1O)N1CCN(c2ccccc2Cl)CC1` [Compound of Example 3, 1-(2-Chlorophenyl)-4-(2-hydroxybenzoyl)piperazine], the cytotoxicity entry in the data set with GMK cells [2] (setting [6]) is given as “-”. The log reduction at 10 µg/mL in data set [1] (setting [7]) worked out at 0.83.

On to `CS(=O)(=O)N1CCN(c2ccccc2Cl)CC1` [Compound of Example 6, 1-(2-Chlorophenyl)-4-methylsulfonylpiperazine], for which the cytotoxicity entry in the data set on GMK cells [2] (setting [6]) is “-”. For the same compound, in data set [1] (setting [7]), the log reduction at 10 µg/mL was determined as 0.17.

Consider `NS(=O)(=O)c1ccc(N2CCN(c3ccccc3Cl)CC2)cc1` [Compound of Example 11, 1-(4-Aminosulfonylphenyl)-4-(2-chlorophenyl)piperazine], for which the cytotoxicity entry in the data set with GMK cells [2] (setting [6]) was “-”. Also, in data set [1] (setting [7]), the log reduction at 10 µg/mL turned out to be 1.5.

Consider `C[C@H](CCC(=O)N1CCN(c2ccccc2Cl)CC1)[C@H]1CC[C@H]2[C@@H]3CC[C@@H]4CCCC[C@]4(C)[C@H]3CC[C@]12C` [Compound of Example 10, 1-(2-Chlorophenyl)-4-(5β-cholan-24-oyl)piperazine], for which the cytotoxicity entry in the data set on GMK cells [2] (green monkey, 10 µg/ml) was “-”. In data set [1] (setting [7]), the log reduction at 10 µg/mL worked out at 0.17.

As for `CCn1cc(C(=O)O)c(=O)c2cc(F)c(N3CCN(c4ccccc4Cl)CC3)cc21` [Compound of Example 5, 7-[4-(2-Chlorophenyl)-1-piperazinyl]-1-ethyl-6-fluoro-1,4-dihydro-4-oxoquinoline-3-carboxylic acid], the cytotoxicity result in the data set on GMK cells [2] (5 µg/ml, GMK cells, in parentheses) is listed as “-”; in the data set on GMK cells [2] (setting [6]) it was “±”. In addition, the log reduction at 5 µg/mL in data set [1] (Human alphaherpesvirus 1, 5 µg/ml, GMK cells, 1% fetal bovine serum, read-out: Antiviral Activity (ΔTCID₅₀(log₁₀))) is greater than 2.83. The log reduction at 10 µg/mL in data set [1] (setting [7]) is greater than 2.83. Besides, the “Mean Survival Days” value with HSV-1 (Miyama strain) (setting [8]) stood at 16.8 ± 1.6 days; in the data set on HSV-1 (Miyama strain) (setting [9]), 18.7 ± 1.2 days. The “Survival Ratio at 21 days (%)” value is 40% in the data set on HSV-1 (Miyama strain) (setting [8]) and 70% with HSV-1 (Miyama strain) (setting [9]).

Regarding `O=C(CN1CCCC1=O)N1CCN(c2ccccc2Cl)CC1` [Compound of Example 1, 1-(2-Chlorophenyl)-4-(2-pyrrolidon-1-yl)acetylpiperazine], the cytotoxicity result in the data set with GMK cells [2] (setting [6]) is “-”. Further, in data set [1] (setting [7]), the log reduction at 10 µg/mL worked out at 0.17.

With `CC(=O)Oc1ccccc1C(=O)N1CCN(c2ccccc2Cl)CC1` [Compound of Example 2, 1-(2-Acetoxybenzoyl)-4-(2-chlorophenyl)piperazine], the cytotoxicity entry with GMK cells [2] (setting [6]) is given as “-”. Further, the log reduction at 10 µg/mL in data set [1] (setting [7]) was 0.5.

With “2-[4-(2-Trifluoromethylphenyl)-1-piperazinyl]-7-(2-deoxy-α-and β-D-ribofuranosyl)hypoxanthine and 2-[4-(2-Trifluromethylphenyl)-1-piperazinyl]-9-(2-deoxy-α- and β-D-ribofuranosyl)hypoxanthine [Compound of Example 21]”, the “Antiviral Activity (ΔTCID₅₀(log₁₀))” value in data set [3] (10 µg/ml) came to 1.00 log₁₀. In addition, in the data set on GMK cells [4] (10 µg/ml), the cytotoxicity result is given as “-”.

Consider `CC[C@@]12C=C(C(=O)NCCN3CCN(c4ccccc4OC)CC3)n3c4c(c5ccccc53)CCN(CCC1)[C@H]42` [Compound of Example 25, N-[4-(2-Methoxyphenyl)piperazine-1-yl]ethyl-(3α,16α)-eburunamenine-14-caboxamide], for which the “Antiviral Activity (ΔTCID₅₀(log₁₀))” value in data set [3] (5 µg/ml) was 0.67 log₁₀; in data set [3] (10 µg/ml) it was 2.27 log₁₀. Besides, the cytotoxicity entry in the data set on GMK cells [4] (5 µg/ml) and in the data set on GMK cells [4] (10 µg/ml) was “-” each time.

On to `COc1ccc2[nH]c(C(=O)N3CCN(c4ccccc4C(F)(F)F)CC3)cc2c1` [Compound of Example 22, 1-(5-Methoxyindolyl-2-carbonyl)-4-(2-trifluoromethyl)piperazine], for which the “Antiviral Activity (ΔTCID₅₀(log₁₀))” value in data set [3] (10 µg/ml) is 0.64 log₁₀. In the data set on GMK cells [4] (10 µg/ml), the cytotoxicity entry was “-”.

In the case of `CCCCC/C=C\C/C=C\CCCCCCCC(=O)N1CCN(c2ccccc2C(F)(F)F)CC1` [Compound of Example 17, 1-(2-Trifluoromethylphenyl)-4-[(Z,Z)-9,12-octadecadienoyl]piperazine], the “Antiviral Activity (ΔTCID₅₀(log₁₀))” value in data set [3] (10 µg/ml) is 1.56 log₁₀. In addition, in the data set on GMK cells [4] (10 µg/ml), the cytotoxicity entry was “-”.

With `Cc1cc(O)c2c(=O)c(C)c(-c3ccc(OC(=O)CN4CCN(c5ccccc5C(F)(F)F)CC4)cc3)oc2c1` [Compound of Example 24, 2-[4-(4-(2-Trifluoromethylphenyl)-1-piperazinylacetoxy)phenyl]-5-hydroxy-3,7-dimethyl-4H-1-benzopyran-4-one], the “Antiviral Activity (ΔTCID₅₀(log₁₀))” value in data set [3] (10 µg/ml) is recorded as 0.33 log₁₀. Also, in the data set on GMK cells [4] (10 µg/ml), the cytotoxicity result was “-”.

On to `CCn1cc(C(=O)O)c(=O)c2cc(F)c(N3CCN(c4ccccc4C(F)(F)F)CC3)cc21` [Compound of Example 23, 1-Ethyl-6-fluoro-7-[4-(2-trifluoromethylphenyl)-1-piperazinyl]-1,4-dihydro-4-oxoquinoline-3-carboxylic acid], for which the “Antiviral Activity (ΔTCID₅₀(log₁₀))” value in data set [3] (5 µg/ml) and in data set [3] (10 µg/ml) was greater than 3.17 log₁₀ in each case. In addition, the cytotoxicity result with GMK cells [4] (5 µg/ml) is on record as “±”; in the data set with GMK cells [4] (10 µg/ml), “+”.

Turning to `CC[C@@]12C=C(C(=O)NCCN3CCN(c4ccccc4Cl)CC3)n3c4c(c5ccccc53)CCN(CCC1)[C@H]42` [Compound of Example 26, N-[4-(2-Chlorophenyl)piperazine-1-yl]ethyl-(3α,16α)-eburunamenine-14-caboxamide], the entries for the “Antiviral Activity (ΔTCID₅₀(log₁₀))” value in data set [3] (5 µg/ml) and in data set [3] (10 µg/ml) were 2.00 log₁₀ and greater than 3.17 log₁₀, respectively. Moreover, the cytotoxicity entry in the data set with GMK cells [4] (5 µg/ml) is reported as “-”; in the data set on GMK cells [4] (10 µg/ml), “+”.
